Data as given in PubChem BioAssay (NCI).
Values joined by “and” are separate entries in the source; they are usually repeats but may differ in a detail not shown here. Equal values may be shown once.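 Growth conditions: 96-well plates. Treatment: test compound, 48 hours, 5 concentrations. Analysis: linear interpolation between bracketing concentrations; unreached endpoints set to highest concentration. Abbreviation: GI50, concentration required for 50% inhibition of growth. TGI: concentration producing complete growth inhibition.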

These compounds were tested on OVCAR-3 ovarian (assay: NCI-60 cell line screen, 48 h).

Q: For `COc1cc2cc(OC)c3cc4c(cc3c2c(OC)c1OC)OCO4`, which TGI is on record?
A: The TGI was over 100 µM.

Q: Which TGI does the source give for `O=C(CC(=O)c1cccc2ccccc12)C(=O)Nc1ccc(Cl)cc1` here?
A: The TGI was over 100 µM.

Q: What does the source list for `OCc1cc2ccccc2c2c3c(ccc12)OCO3`?
A: GI50: 36.4 µM; TGI: 168 µM

Q: With `CCCCCCCCCCCCCC(=O)OC(/C=C/C(C)C)C(O)C(O)C(OC)C(=O)NC1CCCCN(C)C1=O` (stereo not given) as the compound, how does the TGI read?
A: Its TGI is 8.03 µM and > 49 µM.

Q: For `CC1(C(=O)O)CCC[C@@]2(C)C1CC[C@@]1(C)c3cocc3CCC21` (stereo not given in full), which TGI is on record?
A: Its TGI is over 100 µM.

Q: For `C[C@@H](Oc1cc(-n2cnc3ccc(CN4CCN(C)CC4)cc32)sc1C(N)=O)c1ccccc1C(F)(F)F`, which GI50 is on record?
A: Its GI50 is < 0.0152 µM and 0.00528 µM.

Q: What about the TGI of the same compound?
A: The TGI was 16.7 µM and > 10 µM.

Q: With `CCN(CC)CCSc1c2ccccc2nc2cc(NCC(=O)Nc3ccccc3-c3ccccc3NC(=O)CNc3ccc4c(SCCN(CC)CC)c5ccccc5nc4c3)ccc12` as the compound, how does the TGI read?
A: The TGI was over 100 µM.

Q: `Cc1ccsc1C(=S)Nc1ccc(Cl)c(/C=N/OC(C)(C)C)c1` was tested. Which TGI did it give?
A: Its TGI is over 100 µM.

Q: `CC(C)=CCC\C(C)=C/C=C/C(C)=C\C=C\C(C)=C/C=C/C=C(C)\C=C\C=C(C)/C=C/C=C(/C)CCC=C(C)C` was tested. Which TGI did it give?
A: The TGI was over 100 µM.

Q: For `CC1(C)C(=O)/C=C\C(=O)C(C)(C)C2=CC=C(O2)C(C)(C)C(=O)/C=C\C(=O)C(C)(C)C2=CC=C1O2`, which TGI is on record?
A: Its TGI is over 100 µM.

Q: For `NC(=O)NO.O.O.O.O.O.O.O.O.O.O.O.[Ge].[Ge].[Ge].[Ge].[Ge].[O]=[Ge].[O]=[Ge].[O]=[Ge].[O]=[Ge].[O]=[Ge][OH]`, which TGI is on record?
A: Its TGI is over 100 µM.

Q: `CN(C)C(=S)N=C(Nc1ccccc1)Nc1ccccc1` was tested. Which TGI did it give?
A: The TGI was over 100 µM.

Q: `NC(N)=NS(=O)(=O)c1ccc(Nc2c3ccccc3nc3c(C(=O)NCCO)cccc23)cc1` was tested. Which GI50 did it give?
A: Its GI50 is 17.1 µM.

Q: `COc1cccc(C2c3cc4c(cc3OC(C)(N3CCCC3)C2C)OCO4)c1O` (stereo not given) was tested. Which TGI did it give?
A: The TGI was 5.45 µM.

Q: Which TGI does the source give for `COC(=O)CC[N+]1=CCC(c2ccccc2)(c2ccccc2)O1` here?
A: The TGI was over 100 µM.

Q: For `O=C1NC(=NCCc2cccc(F)c2)S/C1=C\c1ccc2ncccc2c1`, which GI50 is on record?
A: Its GI50 is 1.76 µM.

Q: What about the TGI of the same compound?
A: The TGI was over 25 µM.

Q: How did the GI50 turn out when `COc1cc(/C=N\NC(=O)CN2CCN(c3cc4c(cc3F)c(=O)c(C(=O)N/N=C/c3cc(OC)c(OC)c(OC)c3)cn4C3CC3)CC2)cc(OC)c1OC` was run?
A: The GI50 was 0.214 µM.

Q: And the TGI?
A: Its TGI is 0.458 µM.

Each compound was assayed on OVCAR-5 ovarian (assay: NCI-60 cell line screen, 48 h).

Q: Which TGI does the source give for `COc1ccc(CC2c3cc4c(cc3CCN2C)OCO4)c(C=O)c1OC` (stereo not given) here?
A: The TGI was over 100 µM.

Q: For `CN1CCCCC1CCN1c2ccccc2Sc2ccc(Cl)cc21` (stereo not given), which GI50 is on record?
A: The GI50 was 3.65 µM.

Q: And the TGI?
A: The TGI was 14 µM.

Q: Which results are given for `C=C(C)C(OC)C(O)CC1(C)CC(O)CC(C)(C2CCC3OC(C4(C)CCC(Br)C(C)(C)O4)CCC3(C)O2)O1` (stereo not given)?
A: GI50: 20.5 µM; TGI: 38.7 µM

Q: With `O=C(Nc1nc2ccc([N+](=O)[O-])cc2s1)C(=O)C(C1OC(=O)c2ccccc21)[N+](=O)[O-]` (stereo not given) as the compound, how does the TGI read?
A: The TGI was over 100 µM.

Q: How did the GI50 turn out when `Cc1cc(-c2nc(C(=O)Nc3cc4oc(N5CCOCC5)nc4nc3N3CC[C@@H](O)C3)co2)ccn1` was run?
A: Its GI50 is over 100 µM.

Q: And the TGI?
A: Its TGI is over 100 µM.

Q: With `COc1cc2c(cc1OCCCCN1CCN(CC(=O)Nc3ccc(Cl)cc3C(=O)c3ccccc3Cl)CC1)N=CC1CCCN1C2=O` (stereo not given) as the compound, how does the GI50 read?
A: Its GI50 is 0.324 µM.

Q: And the TGI?
A: Its TGI is 0.939 µM.

Q: `O=C(CCc1nc(=S)[nH][nH]1)Nc1ccc(Cl)c(Cl)c1` was tested. Which TGI did it give?
A: The TGI was over 100 µM.

Q: How did the TGI turn out when `COC(=O)C1(C(C)C)CCc2c(OC)ccc(OC)c2C1=O` (stereo not given) was run?
A: The TGI was over 100 µM.

Q: With `Cc1ccc(Cl)c2c(N=Nc3ccccc3[N+](=O)[O-])c(O)[nH]c12` as the compound, how does the TGI read?
A: Its TGI is over 100 µM.

Q: Which results are given for `FC(F)(F)c1cccc(Nc2nc(-c3ccccc3)nc3ncccc23)c1`?
A: GI50: 13.2 µM; TGI: 90.4 µM

Q: How did the GI50 turn out when `O=C(Nc1ccccc1)c1c(O)[nH]c(=S)[nH]c1=O` was run?
A: The GI50 was 89.6 µM.

Q: And the TGI?
A: Its TGI is 110 µM and > 250 µM.

Q: How did the GI50 turn out when `OC1CSSC1Cn1cnc2c(Nc3ccc(OCc4cccc(F)c4)c(Cl)c3)ncnc21` (stereo not given) was run?
A: The GI50 was 3.83 µM.

Q: What about the TGI of the same compound?
A: The TGI was 10.2 µM.

Q: Which TGI does the source give for `C=CCOc1ccc2c(C)cc(=O)oc2c1C` here?
A: The TGI was over 100 µM.

Q: How did the GI50 turn out when `Nc1c(C(=O)c2cccc(CCS(N)(=O)=O)c2)cnn1-c1ccc(F)cc1` was run?
A: Its GI50 is over 25 µM.

Q: What about the TGI of the same compound?
A: The TGI was over 25 µM.

Q: How did the TGI turn out when `COC(=O)c1ccccc1NC(=O)C(=O)Cc1nc2c3c(ccc2[nH]c1=O)C(=O)c1ccccc1C3=O` was run?
A: Its TGI is over 100 µM.

Q: With `COc1cc2cc(OC)c3cc4c(cc3c2c(OC)c1OC)OCO4` as the compound, how does the TGI read?
A: Its TGI is 90.9 µM.

Q: `O=C(CC(=O)c1cccc2ccccc12)C(=O)Nc1ccc(Cl)cc1` was tested. Which TGI did it give?
A: The TGI was over 100 µM.

Q: What does the source list for `OCc1cc2ccccc2c2c3c(ccc12)OCO3`?
A: GI50: 40.9 µM; TGI: 207 µM

Q: How did the GI50 turn out when `CCCCCCCCCCCCCC(=O)OC(/C=C/C(C)C)C(O)C(O)C(OC)C(=O)NC1CCCCN(C)C1=O` (stereo not given) was run?
A: The GI50 was over 49 µM.

Q: What about the TGI of the same compound?
A: The TGI was 10.8 µM and > 49 µM.

Q: For `CC1(C(=O)O)CCC[C@@]2(C)C1CC[C@@]1(C)c3cocc3CCC21` (stereo not given in full), which TGI is on record?
A: Its TGI is over 100 µM.

Q: Which GI50 does the source give for `C[C@@H](Oc1cc(-n2cnc3ccc(CN4CCN(C)CC4)cc32)sc1C(N)=O)c1ccccc1C(F)(F)F` here?
A: Its GI50 is < 0.0175 µM and 0.0264 µM.

Q: What about the TGI of the same compound?
A: The TGI was 16.6 µM and > 10 µM.

Q: Which TGI does the source give for `CCN(CC)CCSc1c2ccccc2nc2cc(NCC(=O)Nc3ccccc3-c3ccccc3NC(=O)CNc3ccc4c(SCCN(CC)CC)c5ccccc5nc4c3)ccc12` here?
A: The TGI was over 100 µM.

Q: For `Cc1ccsc1C(=S)Nc1ccc(Cl)c(/C=N/OC(C)(C)C)c1`, which TGI is on record?
A: The TGI was over 100 µM.
